In ChEMBL document CHEMBL3046518, “Phytotoxic Compounds Cochlioquinones Are Inhibitors of Mitochondrial NADH-Ubiquinone Reductase” (J Pestic Sci, 1996):
Active and inactive are the calls of the source. The calls are words filed in the database; no cut-off is given here.

How the values were obtained:
Solanum tuberosum [1] = experiment: Inhibition of Solanum tuberosum (potato) tuber electron transport protein complex 4 activity
Solanum tuberosum [2] = experiment: Inhibition of Solanum tuberosum (potato) tuber electron transport protein complex 3 activity
Solanum tuberosum [3] = experiment: Inhibition of Solanum tuberosum (potato) tuber electron transport protein complex 2 activity
Solanum tuberosum [4] = experiment: Inhibition of Solanum tuberosum (potato) tuber succinate oxidase activity at 3600 nmol/mg protein
[5] = Inhibition of Solanum tuberosum (potato) tuber proton-pump NADH dehydrogenase activity assessed per mg protein
[6] = Inhibition of Bos taurus (bovine) heart mitochondrial electron transport protein complex 4 assessed per mg protein
[7] = Inhibition of Bos taurus (bovine) heart mitochondrial electron transport protein complex 2 assessed per mg protein
[8] = Inhibition of Bos taurus (bovine) heart mitochondrial electron transport protein complex 3 assessed per mg protein
[9] = Inhibition of Bos taurus (bovine) heart mitochondrial electron transport protein complex 2/3 assessed per mg protein
[10] = Inhibition of Bos taurus (bovine) heart mitochondrial electron transport protein complex 1 assessed per mg protein
[11] = Inhibition of Bos taurus (bovine) heart mitochondrial […] activity assessed per mg protein

SMILES: CC[C@H](C)C(=O)[C@@H](C)C1=CC(=O)C2=C(O[C@]3(C)CC[C@H]4O[C@@H](C(C)(C)O)CC[C@]4(C)[C@H]3C2)C1=O [COCHLIOQUINONE B]
- inhibition (Solanum tuberosum [1]): inactive
- inhibition (Solanum tuberosum [2]): inactive
- inhibition (Solanum tuberosum [3]): inactive
- inhibition (Solanum tuberosum [4]): inactive
- IC50 [5]: 3000 nmol
- IC50 [6]: > 3600 nmol
- IC50 [7]: > 3600 nmol
- IC50 [8]: > 3600 nmol
- IC50 [9]: > 3600 nmol
- IC50 [10]: 370 nmol
- IC50 [11]: 83 nmol

SMILES: CC[C@H](C)[C@@H](OC(C)=O)[C@@H](C)C1=CC(=O)C2=C(O[C@]3(C)CC[C@H]4O[C@@H](C(C)(C)O)CC[C@]4(C)[C@H]3[C@@H]2O)C1=O [COCHLIOQUINONE A]
- IC50 [11]: 115 nmol

SMILES: C/C=C(\C)[C@@H](OC(C)=O)[C@@H](C)C1=CC(=O)C2=C(O[C@]3(C)CC[C@H]4O[C@@H](C(C)(C)O)CC[C@]4(C)[C@H]3[C@@H]2O)C1=O [STEMPHONE]
- IC50 [11]: 160 nmol

SMILES: CC[C@H](C)[C@@H](OC(C)=O)[C@@H](C)c1cc(O)c2c(c1O)O[C@]1(C)CC[C@H]3O[C@@H](C(C)(C)O)CC[C@]3(C)[C@H]1C2=O [ISOCOCHLIOQUINONE A]
- IC50 [11]: 56 nmol
